According to patent US20040023981A1, “Salt forms with tyrosine kinase activity” (priority 2002, published 2004):
≈ marks a conversion by molar mass, not a printed value.

Tests used:
physchem = settings: thermodynamic from solid, room temperature
human KDR = molecular target: T1, human KDR (Homo sapiens, UniProt P35968); test: VEGF Receptor Kinase Assay; format: biochemical
T1 construct: cloning the cytoplasmic domain of the KDR kinase as an in frame fusion at the carboxy terminus of the GST gene; made in house; host or cells: Spodoptera frugiperda (Sf21) insect cells, baculovirus vector pAcG2T
T1 sequence (P35968 786-1356 limits assumed): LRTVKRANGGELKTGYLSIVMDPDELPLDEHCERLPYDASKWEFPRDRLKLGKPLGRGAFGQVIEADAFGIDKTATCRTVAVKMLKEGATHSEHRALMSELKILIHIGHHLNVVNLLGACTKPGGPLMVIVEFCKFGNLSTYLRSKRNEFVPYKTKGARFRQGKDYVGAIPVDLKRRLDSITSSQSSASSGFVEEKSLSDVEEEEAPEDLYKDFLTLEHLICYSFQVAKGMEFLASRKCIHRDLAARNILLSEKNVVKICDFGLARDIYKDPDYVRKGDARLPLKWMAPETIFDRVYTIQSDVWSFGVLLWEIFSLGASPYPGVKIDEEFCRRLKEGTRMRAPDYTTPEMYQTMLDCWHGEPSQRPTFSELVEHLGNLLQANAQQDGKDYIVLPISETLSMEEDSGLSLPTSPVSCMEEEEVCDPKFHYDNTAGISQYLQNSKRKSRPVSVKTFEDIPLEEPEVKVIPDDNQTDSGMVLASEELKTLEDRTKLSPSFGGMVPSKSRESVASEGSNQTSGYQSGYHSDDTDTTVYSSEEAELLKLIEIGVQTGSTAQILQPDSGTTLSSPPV
Description: VEGF receptor kinase activity is measured by incorporation of radio-labeled phosphate into polyglutamic acid, tyrosine, 4:1 (pEY) substrate. The phosphorylated pEY product is trapped onto a filter membrane and the incorporation of radio-labeled phosphate quantified by scintillation counting.
The intracellular tyrosine kinase domains of human KDR (Terman, B. I. et al. Oncogene (1991) vol. 6, pp. 1677-1683.) and Flt-1 (Shibuya, M. et al. Oncogene (1990) vol. 5, pp. 519-524) were cloned as glutathione S-transferase (GST) gene fusion proteins. This was accomplished by cloning the cytoplasmic domain of the KDR kinase as an in frame fusion at the carboxy terminus of the GST gene. Soluble recombinant GST-kinase domain fusion proteins were expressed in Spodoptera frugiperda (Sf21) insect cells (Invitrogen) using a baculovirus expression vector (pAcG2T, Pharmingen).
1) Add 5 μl of inhibitor or control to the assay in 50% DMSO.
2) Add 35 μl of reaction mix containing 5 μl of 10× reaction buffer, 5 μl 25 mM ATP/10 μCi [^33P]ATP (Amersham), and 5 μl 10× substrate.
3) Start the reaction by the addition of 10 μl of KDR (25 nM) in enzyme dilution buffer.
4) Mix and incubate at room temperature for 15 minutes.
5) Stop by the addition of 50 μl stop solution.
6) Incubate for 15 minutes at 4° C.
7) Transfer a 90 μl aliquot to filter plate.
8) Aspirate and wash 3 times with wash solution. […]

solubility (physchem; 50% aqueous IPA, aqueous with cosolvent or surfactant or cyclodextrin) | solubility (physchem; 50% aqueous ethanol, aqueous with cosolvent or surfactant or cyclodextrin) | solubility (physchem; water, pH 2.9, water) | kinase inhibitory activity (human KDR) | SMILES
12.3 mg/mL (≈ 34.4 mM) | 10.4 mg/mL (≈ 29.1 mM) | 6 mg/mL (≈ 16.8 mM) |  | CNC(=O)N1CCN(Cc2ccnc(Nc3ncc(C#N)s3)c2)CC1 [Form C, 4-[2-(5-cyano-thiazol-2-ylamino)-pyridin-4-ylmethyl]-piperazine-1-carboxylic acid methylamide]
 |  |  | inhibits the kinase KDR | CNC(=O)N1CCN(Cc2ccnc(Nc3ncc(C#N)s3)c2)CC1 [Compound 4-4, 4-[2-(5-cyano-thiazol-2-ylamino)-pyridin-4-ylmethyl]-piperazine-1-carboxylic acid methylamide]
